Data published in patent US20170314056A1, “METHOD OF USING NEAR INFRARED FLUORESCENT DYES FOR IMAGING AND TARGETING CANCERS” (priority 2010, published 2017).
“Also recorded” adds a separate entry of the source.

Assays:
[1] = system: renal cancer cells; assay: Subcellular co-localization in renal cancer cells; format: cell-based, human; details: Mito tracker and Lyso tracker overlay
Protocol: To determine the dye uptake by the mitochondria, the mitochondrial tracking dye, Mito Tracker Orange CMTMROS (Molecular Probes, Carlsbad, Calif.), was used. To determine the dye localization in lysosomes, a lysosome tracking dye, Lyso Tracker Green DND-26 (Molecular Probes, Carlsbad, Calif.), was selected. Images of mitochondrial and/or lysosome localization of the cyanine dye were merged and evidence of co-localization of the cyanine dye and tracking dyes were assessed by confocal imaging using a previously established protocol.^69

[2] = system: normal human cells; assay: Uptake of NIR dyes by cultured normal human cells; format: cell-based; details: HS-27A/BMC, NPE, NPF, HUVEC-CS, HEK293; 20 μM dye, 30 min
Protocol: (§3) Cells (1×10^4/well) were seeded on vitronectin-coated four-well chamber slides (Nalgen Nunc, Naperville, Ill.) and incubated with T-medium containing 5% FBS for 24 h. After the cells had attached to the chamber slides, the cells were washed with PBS (Phosphate Buffered Saline) and exposed to the cyanine dye at a concentration of 20 μM in T-medium. The slides were incubated at 37° C. for 30 min, washed twice with PBS to remove excess dyes, and cells were fixed with 10% formaldehyde at 4° C. The slides were then washed twice with PBS and covered with glass coverslips with an aqueous mounting medium (Sigma-Aldrich, St. Louis, Mo.). Images were recorded by confocal laser microscopy (Zeiss LSM 510 META, Germany) using a 633 nm excitation laser and 670-810 nm long pass filter, or a fluorescence microscope (Olympus 1×71; Olympus, Melville, N.Y.) equipped with a 75 W Xenon lamp and an Indo-Cyanine Green filter cube (excitation 750-800 nm; emission 820-860 nm) (Chroma, Rockingham, Vt.).
(§4) Cells (1×10^4/well) were seeded on vitronectin-coated four-well chamber slides (Nalgen Nunc, Naperville, Ill.) and incubated with T-medium containing 5% FBS for 24 h. After the cells had attached to the chamber slides, the cells were washed with PBS (Phosphate Buffered Saline) and exposed to the cyanine dye at a concentration of 20 μM in medium. The slides were incubated at 37° C. for 30 min, washed twice with PBS to remove excess dyes, and fixed with 10% formaldehyde at 4° C. The slides were then washed twice with PBS and covered with glass coverslips with aqueous mounting medium (Sigma-Aldrich, St. Louis, Mo.). Images were recorded by confocal laser microscopy (Zeiss LSM 510 META, Germany) equipped with 633 nm excitation laser and 670-810 nm long pass filter.

[3] = Dye distribution and clearance in normal mouse tissues; format: in vivo
Source text: One mouse was sacrificed at 96 hrs after IR-780 injection through tail vein, and isolated tissues and organs excised from mice were cut into frozen slides and were imaged under confocal microscope.
(§1) To assess tissue distribution of these dyes, athymic mice without tumor implantation were sacrificed at 0, 6 and 80 hrs (N=3 each) after i.v. injection of IR-783 dye at a dose of 10 nmol/20 g. Dissected organs were subjected to NIR imaging by a Kodak Imaging Station 4000 MM. In another study the mice bearing orthotopic ARCaPM tumors were subjected to NIR imaging at 0.5, 24, 48, 72 and 96 hrs after IR-783 i.v. administration at a dose of 10 nmol/20 g. In some cases, we also assessed the biodistribution of NIR dye by a spectral method in tissues harvested from athymic mice bearing subcutaneous ARCaPM tumors (N=6). Tumors and normal host organs were homogenized in PBS, centrifuged at 15,000×g for 15 minutes to recover the supernatant fraction after the mice were injected i.p. with IR-783 at a dose of 10 nmol/20 g. The presence of the organic dyes (parental IR-783 and its metabolites) in tissues was estimated spectrophotometrically at an emission wavelength of 820 nm by a PTI Near Infrared Fluorometer QuantaMaster™ 50 (PTI, Birmingham, N.J.) equipped with a 75-watt xenon arc lamp under 500 to 1700 nm InGaAs detector using known concentrations of IR-783 as the standard (28). In other cases, tumor tissues harvested from mice were stored in formalin from 1 week to 3 months, and fluorescence images were obtained and compared.

[4] = system: Apc^Min/+ mouse adenoma; assay: Detection of intestinal neoplasia in Apc^Min/+ mice; format: in vivo; details: IR-783 i.p. 10 nmol/20 g
Protocol: (§2) The uptake of cyanine dyes by the TRAMP mouse prostate model and the Apc^Min/+ mouse-adenoma model (obtained from The Jackson Laboratory, Bar Harbor, Me.) was assessed by a similar protocol as described above. We also utilized the Olympus OV100 imaging system to detect adenoma in the Apc^Min/+ mouse model. In brief, mice were injected intraperitoneally with IR-783 dye at a dose of 10 nmol/20 g body weight and animals were subjected to total body cyanine dye imaging as described above. Animals were sacrificed at 48 hrs after dye administration and tumors were dissected and subjected to NIR imaging. The presence of tumor cells in tissue specimens was confirmed by histopathologic analysis.

[5] = system: P69 cells; assay: Live-cell kinetics of dye uptake in normal prostate epithelial cells; format: cell-based, human
Protocol: Cells were plated on live-cell imaging chambers (World Precision Instrument, Sarasota, Fla.) overnight. Cells were exposed to cyanine dyes at different concentrations and dye uptake was evaluated by a Perkin-Elmer Ultraview ERS spinning disc confocal microscope. This system was mounted on a Zeiss Axiovert 200m inverted microscope equipped with a 37° C. stage warmer, incubator, and constant CO2 perfusion. A 63× or 100× Zeiss oil objective (numerical aperture, 1.4) was used for live cell images and a Z-stack was created using the attached piezoelectric z-stepper motor. The 633 nm laser line of an argon ion laser (set at 60% power) was used to excite the cyanine dyes. […] For comparative studies, the exposure time and laser intensity were kept identical for accurate intensity measurements. Pixel intensity was quantified using Metamorph 6.1 (Universal Imaging, Downingtown, Pa.) and the mean pixel intensity was generated as grey level using the Region Statistics feature on the software (23). To determine the dye uptake by the mitochondria, the mitochondrial tracking dye Mito Tracker Orange CMTMROS (Molecular Probes, Carlsbad, Calif.) was used. To determine the dye localization in lysosomes, a lysosome tracking dye, Lyso Tracker Green DND-26 (Molecular Probes, Carlsbad, Calif.), was selected. Imaging of mitochondrial and/or lysosome localization of the cyanine dye was conducted under confocal microscopy (24).
To determine if the cyanine dye uptake and accumulation in cancer cells was dependent upon OATPs, cells were preincubated with 250 μM bromosulfophthalein (BSP), a competitive inhibitor of organic anion transporting peptides (OATPs) (25), for 5 minutes prior to incubating the cells with cyanine dyes. The uptake and accumulation of cyanine dyes in the presence and absence of BSP were conducted in the stage warmer incubator for a period of 35 minutes. The levels of cyanine dye taken up and accumulated in normal prostate (P69) and prostate cancer (ARCaPM) cells were determined and compared on a real-time basis.

[6] = system: ARCaPM tumor; assay: Dye biodistribution in ARCaPM tumor-bearing mice; format: in vivo, mouse
Source text: as §1

[7] = system: TRAMP mouse prostate tumors; assay: Detection of spontaneous prostate tumors in TRAMP transgenic mice; format: in vivo
Protocol: as §2

[8] = system: human cancer cells; assay: Uptake of NIR dyes by cultured human cancer cell lines (confocal NIR imaging); format: cell-based; details: for uptake of dye by human cancer cell lines in culture: panel of prostate, breast, cervical, lung, liver, pancreatic, renal, bladder and leukemia lines, confocal microscope
Protocol: as §3, §4

[9] = Physicochemical properties of the dye
[10] = system: ARCaPM orthotopic tumor metastases; assay: Detection of metastases of orthotopic ARCaPM tumors in mice; format: in vivo, mouse; details: orthotopic ARCaPM (ARCaP) model; bone and soft tissue metastases
Protocol: The spontaneous metastasis of ARCaPM tumor cells stably transduced with an AsRed2 red fluorescence protein (RFP) (Clontech, Mountain View, Calif.) by injecting these cells orthotopically in mice was studied. ARCaPM-RFP metastasis was determined by the same procedures described above for capturing cyanine dye tumor imaging after IR-783 i.p. injection at a dose of 10 nmol/20 g. In addition, at the time of sacrifice both frozen and paraffin embedded tissue sections were obtained for RFP and confocal fluorescence imaging. Positive identification of ARCaPM-RFP cells was accomplished by fluorescence microscopy and validated by subculturing ARCaPM-RFP cells directly from bone metastasis tissue specimens.

2-[2-[2-Chloro-3-[2-[1,3-dihydro-3,3-dimethyl-1-(4-sulfobutyl)-2H-indol-2-ylidene]-ethylidene]-1-cyclohexen-1-yl]-ethenyl]-3,3-dimethyl-1-(4-sulfobutyl)-3H-indolium [IR-783]
subcellular localization of the dye [1]: co-localization with mitochondrial and lysosome organelles | uptake of dye by normal human cells in culture [2]: unable to be taken up by normal cells; also recorded: not to accumulate; also recorded: not taken up; also recorded: low uptake; also recorded: very low uptake | organs accumulating dye ([3]; 6 hrs after i.v. 10 nmol/20 g, normal mice): accumulate in mouse liver, kidney, lung and heart | dye in vital organs at 80 hrs ([3]; 80 hrs after i.v. 10 nmol/20 g, normal mice): completely cleared | time by which dye was cleared from all mouse vital organs ([3]; i.v. 10 nmol/20 g, normal mice): ≤ 80 h | time period within which dye was cleared from normal organs ([3]; liver, kidney, testis and seminal vesicles, live animals): ≤ 96 h | detection of tumor (adenoma) [4]: could detect tumor | uptake of dye in P69 cells ([5]; confocal imaging, 630×): not in normal human prostate epithelial P69 cells | plateau of uptake and retention compared with ARCaP cells ([5]; control P69 cells): much lower plateau | start of uptake and retention ([5]; control P69 cells): 12 min | dye signal in tumor tissue ([6]; 24 hrs after dye, ARCaPM tumor, in vivo and ex vivo imaging): accumulate in tumor tissues; also recorded: strong signals | signal to noise ratios in tumor specimens ([6]; in vivo whole body and ex vivo analysis): exceeding 25 | apparent concentration of dye and its metabolites in tumors versus normal tissues ([6]; light emission intensity at 820 nm, P<0.05, 3 determinations): ~10 fold | signals in normal organs ([6]; liver, lung, heart, spleen and kidneys): very low signals | time at which tumors still retained dye ([6]; orthotopic ARCaPM tumor, i.v. 10 nmol/20 g): ≥ 4 days | detection of / dye uptake by TRAMP prostate tumors ([7]; TRAMP mice, IR-783 i.p. 10 nmol/20 g): accumulate in prostate tumors and their metastases; also recorded: could detect tumor; also recorded: active uptake; also recorded: only tumor-positive signal | NIR fluorescence of tumor specimen after formalin fixation ([7]; TRAMP tumor, formalin solution for 3 weeks): retain heptamethine cyanine NIR fluorescence; also recorded: strong NIR signal | uptake of dye by human bladder cancer cell lines [8]: strong uptake | uptake of dye by human pancreatic cancer cell lines [8]: strong uptake | dye uptake into cancer cells at 0° C. ([8]; data not shown): no dye uptake and none | dye uptake into cancer cells at 37° C. ([8]; 37° C., data not shown): high | uptake of dye by human renal cancer cells ([8]; SN12C, ACHN, Caki-1, 20 μM dye, 30 min): significant uptake; also recorded: actively taking up | uptake of dye by human cancer cell lines in culture ([8]; 20 μM dye, 30 min): preferentially taken up and retained by cancer but not normal cells; also recorded: a wide range of cancer cells but not normal cells were taking up these dyes; also recorded: retained in cancerous cells of human origin; also recorded: significant uptake | photostability [9]: relatively photostable | water solubility [9]: water-soluble | detection of metastases by NIR imaging [10]: highly effective in localizing tumors cells in soft tissues and in bone; also recorded: both the primary tumor and the metastases in mouse tibia/femur were detected; also recorded: signals attained in IR-783 imaging reflect metastases of the orthotopic ARCaPM tumor

CCCN1C(=CC=C2CCCC(C=CC3=[N+](CCC)c4ccccc4C3(C)C)=C2Cl)C(C)(C)c2ccccc21.[I-] [IR-780, 2-[2-[2-Chloro-3-[(1,3-dihydro-3,3-dimethyl-1-propyl-2H-indol-2-ylidene)ethylidene]-1-cyclohexen-1-yl]ethenyl]-3,3-dimethyl-1-propylindolium iodide]
uptake of dye by normal human cells in culture [2]: unable to be taken up by normal cells; also recorded: very low uptake | dye uptake in normal mouse tissues ([3]; 96 hrs after injection through tail vein, frozen slides, confocal): all mouse tissues failed to uptake this organic dye | dye uptake into cancer cells at 0° C. ([8]; data not shown): no dye uptake | uptake of dye by human cancer cell lines in culture ([8]; 20 μM dye, 30 min): preferentially taken up and retained by cancer but not normal cells; also recorded: a wide range of cancer cells but not normal cells were taking up these dyes; also recorded: significant uptake
